Tests used:
[1] = test system: hippocampal neural stem cells; assay: Neural stem cell protection in chronic restraint stress (CRS) mouse, SOX2/Ki67 immunohistochemistry of hippocampus; type: in vivo; conditions: 10 mg/kg intraperitoneally for 10 days, CRS 7 days, FIG. 2
Protocol: An 8-week-old male C57BL/6 mouse was subjected to chronic restraint stress (CRS) using a restrainer from 10 AM to 4 PM daily for 7 days. RITA (10 mg/kg) was intraperitoneally injected using a 1-ml syringe at 9:30 AM for 10 days from 3 days before the stress experience. To confirm the number of hippocampal neural stem cells in the RITA-injected mouse, the control and the stress-experiencing mice were anesthetized by injecting the neuro-anesthetic Zoletil and the muscle anesthetic Rompun to isolate brain tissue. Afterward, the brain tissue was frozen with an optimal cutting temperature compound after fixing the brain with 4% paraformaldehyde (PFA). To perform immunohistochemistry, the frozen brain was cut in the coronal plane to a thickness of 40 μm, and then a neural stem cell indicator, SOX2, and a cell proliferation indicator, Ki67 protein, were labeled with Alexa488 or Alexa555 and stained. The number of fluorescence-expressing cells in the hippocampus of the stained brain was detected using a Confocal 780 microscope (Zeiss), and the result is shown in FIG. 2. As a control, oil, which is a medium in which RITA is dissolved, was injected.

[2] = test system: C57BL/6 mouse subjected to chronic restraint stress; assay: Y-Maze test, spatial memory in CRS mouse; type: in vivo; conditions: Y-Maze test 6 minutes (arm alteration), 10 mg/kg intraperitoneally, FIG. 4
Protocol: (§1) An 8-week-old male C57BL/6 mouse was subjected to chronic restraint stress (CRS) using a restrainer from 10 AM to 4 PM daily for 7 days. RITA (10 mg/kg) was intraperitoneally injected using a 1-ml syringe at 9:30 AM for 10 days from 3 days before the stress experience. Specifically, to measure anxiety-related behavior, an open field test was performed. The degree of anxiety was measured by observing a staying rate during a staying time in the middle in a square with a size of 40×40 cm^2 for 20 minutes. In addition, to measure spatial memory ability, a Y-Maze test was performed. The degree of spatial memory ability was measured by measuring the rate (arm alteration) entering each passage while freely moving in a Y-shaped maze space composed of three passages for 6 minutes.

[3] = test system: adult hippocampal neural stem cells (HCN cells); assay: Cell death assay (Hoechst 33342/PI) of stress hormone (CORT)-induced death of adult hippocampal neural stem cells; type: cell-based, rat; conditions: 50 nM RITA (3 h pre-treatment, then with 200 μM CORT), 48 hours, FIG. 1
Protocol: First, adult hippocampal neural stem cells (HCN cells; hereinafter, referred to as “HCN”) were isolated from an 8-week-old female Sprague-Dawley rat (SD rat). Afterward, the isolated hippocampal neural stem cells were incubated using a serum-free medium containing Dulbecco's modified Eagle's medium (DMEM)/F-12 to which N2 and basic fibroblast growth factor (bFGF; PeproTech) were added in a 37° C. incubator. The cells were subcultured every 3 or 4 days. The subcultured neural stem cells were put into a 96-well plate at 1.5×10^5 cells/ml, 50 nM RITA was treated together with 200 μM corticosterone (CORT), and cell death was confirmed after 48 hours. Before CORT treatment, 50 nM RITA was pre-treated for 3 hours and then treated again along with CORT. For cell death assay, the cells were stained with Hoechst 33342 (Invitrogen) and propidium iodide (PI; Sigma) and photographed by a fluorescence microscope (Axiovert 40 CFL; Carl Zeiss), and the percentage of cell death was calculated by the following cell death (%) equation. Cell death (%)=(the number of PI[red]−positive cells/the number of Hoechst [blue]−positive cells)×100

[4] = test system: C57BL/6 mouse subjected to chronic restraint stress; assay: Open field test, anxiety-related behavior in CRS mouse; type: in vivo; conditions: open field test 20 minutes, 10 mg/kg intraperitoneally, FIG. 3
Protocol: as §1

SMILES: OCc1ccc(-c2ccc(-c3ccc(CO)s3)o2)s1 [RITA, 2,5-bis[5-hydroxymethyl-2-thienyl] furan]
- number of cells expressing Ki67 (cell proliferation indicator) decreased by stress [1]: considerably increased compared to the control
- number of cells expressing SOX2 (stem cell indicator) decreased by stress [1]: considerably increased compared to the control
- spatial memory disability caused by stress experience [2]: prevented
- death of neural stem cells caused by a stress hormone [3]: inhibits the death of neural stem cells
- anxiety disorder-related behavior caused by stress experience [4]: prevented

— US12558344B2, “Composition for preventing or treating brain-nervous system diseases comprising rita or derivatives thereof” (priority 2019, dated 2026)
